The text below walks through data of patent publication EP0143987A1, “Therapeutic compositions endowed with antiviral activity” (Stendardi, Anna Gioia, priority 1983, dated 1985).

For test [1], the system named is type 2 (HSV-2) herpes simplex viruses. Conditions: background statement; cited from earlier work.
The test system of test [2] is herpex simplex virus type 1 (ATCC VR-733). The test can be described thus: plaque reduction test in Vero cells. It counts as cell-based. Conditions: mean of three samples, 72 hours, untreated control 134 plaques. On the procedure:
The mutual synergistic activity of acyclovir and BVDU was evaluated on the herpex simplex virus type 1 (ATCC VR-733), grown in Vero cells (ATCC CCL 81) in MEM T-199 containing 2% calf serum.
The method used was the plaque reduction test /P. Collins et al. (1977) Annals, of the New York Academy of Sciences 284, pp. 49-59/. For this purpose, confluent monolayers of Vero cells, seeded in multi-well plates (diameter 3.5 cm) at a concentration of […] cells/plate, were infected with 150 plaque-forming units (PFU) of HSV-1 per plate.
After an adsorption period of one hour at room temperature and removal of the unadsorbed virus, the monolayers were washed with buffered saline solution and then incubated at 35°C, in 5% CO2, in MEM T-199 containing 2% calf serum and 0.75% carboxymethylcellulose, both in the absence and in the presence of the inhibitors.
72 hours later, the infected monolayers were washed three times with saline solution and dyed with a 0.1% methylene blu solution in order to be able to count the number of lysis plaques resulting from the multiplication of the virus.
The number represent the mean value of three samples, and correspond to the number of plaques obtained in the absence or in the presence of acyclovir and BVDU, used either individually or in association.
The above values were then expressed as percentage of the number of plaques obtained in untreated control cultures and plotted, in the ordinate axis, against the logarithm of the concentration used (in abscissa).
This enabled to determine the concentration of the two drugs (alone or in combination) which were necessary for reducing the number of viral plaques by 100% (ID100) […]

Test [3] deals with HSV-1. The test is described as follows: appearance of resistant HSV-1 mutants following treatment. It counts as cell-based. Conditions: for Resistant mutants/10^4 viruses: plaques counted 72 hours later; for HSV-1 mutants resistant, pre-existing within the virus population: approximate restatement of Table 2 (drugs used individually). On the procedure:
Finally, tests were carried out which aimed at quantifying the appearance of resistant HSV-1 mutants following treatment with acyclovir and BVDU, used individually or in association. For these tests the two compounds were used in concentrations which were 3.3 times (acyclovir) and 1.4 times (BVDU) the ID 100 value, so as to be able to completerly prevent the multiplication of sensitive viruses. For this 5 purpose, […] Vero cells, infected with HSV-1 at a multiplicity of 0.3 PFU/cell, were seeded on a preformed monolayer of uninfected Vero cells and left to adhere for 4 hours at 35°C in T-199 with 2% serum, in the presence of the inhibitors.
The liquid culture medium was then removed and replaced with new medium containing the inhibitors and 0.75% carboxymethylcellulose.
The number of plaques developed following multiplication of resistant viruses was determined 72 hours later.

Test [4] relates to type 1 (HSV-1) herpes simplex viruses. Conditions: background statement; cited from earlier work.

The structures appear in SMILES notation.

With `Nc1nc2c(ncn2COCCO)c(=O)[nH]1` [Acyclovir, 9-(2-hydroxyethoxymethyl) guanine], the “inhibition of the multiplication of HSV-2” value in test [1] was “inhibits to an equal extent”. Further, the number of plaques in test [2] (Acyclovir 0.075 µM alone) came to 111; in test [2] (Acyclovir 0.15 µM alone), 99; in test [2] (Acyclovir 0.3 µM alone), 52; in test [2] (Acyclovir 0.6 µM alone), 8; in test [2] (Acyclovir 1.2 µM alone), 0. The “Resistant mutants/10^4 viruses” value in test [3] (Acyclovir 2.5 μM alone) is given as 28.6 /10^4 viruses. Further, the “HSV-1 mutants resistant, pre-existing within the virus population” value in test [3] is reported as ~3 per 1000 sensitive viruses. Besides, the “inhibition of the multiplication of HSV-1” value in test [4] is on record as “inhibits to an equal extent”.
Consider `O=c1[nH]c(=O)n([C@H]2C[C@H](O)[C@@H](CO)O2)cc1/C=C/Br` [BVDU, E-5-(2-bromovinyl)-2'-deoxyuridine], for which, in test [1], the “inhibition of the multiplication of HSV-2” value is “not against HSV-2”. In addition, the number of plaques in test [2] (BVDU 0.01 µM alone) came to 141; in test [2] (BVDU 0.02 µM alone), 131; in test [2] (BVDU 0.04 µM alone) it was 109; in test [2] (BVDU 0.8 µM alone), 81. In test [3] (BVDU 1.0 μM alone), the “Resistant mutants/10^4 viruses” value is listed as 13.8 /10^4 viruses. Besides, the “HSV-1 mutants resistant, pre-existing within the virus population” value in test [3] is ~1 per 1000 sensitive viruses. Also, in test [4], the “inhibition of the multiplication of HSV-1” value is reported as “effective against HSV-1”.
